Key:
Experiment in all cases: relative viability (nuclei count vs DMSO), 5 days (fraction); higher = more cells survive
NCI-H1915 = tested on: NCI-H1915
How it was run: (§1)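 The day after seeding in 1536-well plates, lung cancer cell lines were treated by pin tool with a single drug, or with a fixed anchor-drug dose together with five library-drug doses (not always all listed) in √10 steps. After 5 days, a combined fix-and-stain solution (final 0.05% Triton X-100, 1% formaldehyde, 1 ug/ml Hoechst) was added. Nuclei counted on 4× images gave relative viability as treated counts over vehicle counts, reported as the median of duplicate plates.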

SK-LU-1 = tested on: SK-LU-1
How it was run: as §1

A-427 = tested on: A-427
How it was run: as §1

HCC-366 = tested on: HCC-366
How it was run: as §1

NCI-H1355 = tested on: NCI-H1355
How it was run: as §1

NCI-H23 = tested on: NCI-H23
How it was run: as §1

NCI-H1437 = tested on: NCI-H1437
How it was run: as §1

NCI-H1792 = tested on: NCI-H1792
How it was run: as §1

SW 1573 = tested on: SW 1573
How it was run: as §1

NCI-H1395 = tested on: NCI-H1395
How it was run: as §1

COR-L 105 = tested on: COR-L 105
How it was run: as §1

NCI-H727 = tested on: NCI-H727
How it was run: as §1

HOP-62 = tested on: HOP-62
How it was run: as §1

NCI-H1755 = tested on: NCI-H1755
How it was run: as §1

NCI-H1975 = tested on: NCI-H1975
How it was run: as §1

EMC-BAC-2 = tested on: EMC-BAC-2
How it was run: as §1

NCI-H2009 = tested on: NCI-H2009
How it was run: as §1

NCI-H2228 = tested on: NCI-H2228
How it was run: as §1

NCI-H460 = tested on: NCI-H460
How it was run: as §1

CAL-12T = tested on: CAL-12T
How it was run: as §1

HARA = tested on: HARA
How it was run: as §1

LCLC-103H = tested on: LCLC-103H
How it was run: as §1

HCC-827 = tested on: HCC-827
How it was run: as §1

NC(=O)Nc1cc(-c2cccc(F)c2)sc1C(=O)N[C@H]1CCCNC1 [AZD7762] + COc1cccc2cc(-c3nc([C@H]4CC[C@H](C(=O)O)CC4)n4ncnc(N)c34)[nH]c12 [OSI-027] (partner 0.5 µM)
relative viability (NCI-H1915; first compound 0.01 µM): 0.629 | relative viability (NCI-H1915; first compound 0.03162 µM): 0.635 | relative viability (NCI-H1915; first compound 0.1 µM): 0.64 | relative viability (NCI-H1915; first compound 0.3162 µM): 0.638 | relative viability (NCI-H1915; first compound 1 µM): 0.571 | relative viability (SK-LU-1; first compound 0.01 µM): 0.35 | relative viability (SK-LU-1; first compound 0.03162 µM): 0.384 | relative viability (SK-LU-1; first compound 0.1 µM): 0.203 | relative viability (SK-LU-1; first compound 0.3162 µM): 0.136 | relative viability (SK-LU-1; first compound 1 µM): 0.157 | relative viability (A-427; first compound 0.01 µM): 0.484 | relative viability (A-427; first compound 0.03162 µM): 0.498 | relative viability (A-427; first compound 0.1 µM): 0.343 | relative viability (A-427; first compound 0.3162 µM): 0.353 | relative viability (A-427; first compound 1 µM): 0.224 | relative viability (HCC-366; first compound 0.01 µM): 1.02 | relative viability (HCC-366; first compound 0.03162 µM): 0.896 | relative viability (HCC-366; first compound 0.1 µM): 0.985 | relative viability (HCC-366; first compound 0.3162 µM): 0.869 | relative viability (HCC-366; first compound 1 µM): 0.122 | relative viability (NCI-H1355; first compound 0.01 µM): 0.389 | relative viability (NCI-H1355; first compound 0.03162 µM): 0.489 | relative viability (NCI-H1355; first compound 0.1 µM): 0.515 | relative viability (NCI-H1355; first compound 0.3162 µM): 0.443 | relative viability (NCI-H1355; first compound 1 µM): 0.418 | relative viability (NCI-H23; first compound 0.01 µM): 0.556 | relative viability (NCI-H23; first compound 0.03162 µM): 0.567 | relative viability (NCI-H23; first compound 0.1 µM): 0.652 | relative viability (NCI-H23; first compound 0.3162 µM): 0.566 | relative viability (NCI-H23; first compound 1 µM): 0.288 | relative viability (NCI-H1437; first compound 0.01 µM): 0.888 | relative viability (NCI-H1437; first compound 0.03162 µM): 0.833 | relative viability (NCI-H1437; first compound 0.1 µM): 0.974 | relative viability (NCI-H1437; first compound 0.3162 µM): 0.87 | relative viability (NCI-H1437; first compound 1 µM): 0.695 | relative viability (NCI-H1792; first compound 0.01 µM): 0.832 | relative viability (NCI-H1792; first compound 0.03162 µM): 0.848 | relative viability (NCI-H1792; first compound 0.1 µM): 0.811 | relative viability (NCI-H1792; first compound 0.3162 µM): 0.867 | relative viability (NCI-H1792; first compound 1 µM): 0.965 | relative viability (SW 1573; first compound 0.01 µM): 0.69 | relative viability (SW 1573; first compound 0.03162 µM): 0.65 | relative viability (SW 1573; first compound 0.1 µM): 0.742 | relative viability (SW 1573; first compound 0.3162 µM): 0.422 | relative viability (SW 1573; first compound 1 µM): 0.176 | relative viability (NCI-H1395; first compound 0.01 µM): 0.727 | relative viability (NCI-H1395; first compound 0.03162 µM): 0.74 | relative viability (NCI-H1395; first compound 0.1 µM): 0.708 | relative viability (NCI-H1395; first compound 0.3162 µM): 0.458 | relative viability (NCI-H1395; first compound 1 µM): 0.363 | relative viability (COR-L 105; first compound 0.01 µM): 0.636 | relative viability (COR-L 105; first compound 0.03162 µM): 0.821 | relative viability (COR-L 105; first compound 0.1 µM): 0.543 | relative viability (COR-L 105; first compound 0.3162 µM): 0.472 | relative viability (COR-L 105; first compound 1 µM): 0.406 | relative viability (NCI-H727; first compound 0.01 µM): 0.649 | relative viability (NCI-H727; first compound 0.03162 µM): 0.791 | relative viability (NCI-H727; first compound 0.1 µM): 0.425 | relative viability (NCI-H727; first compound 0.3162 µM): 0.52 | relative viability (NCI-H727; first compound 1 µM): 0.358 | relative viability (HOP-62; first compound 0.01 µM): 0.759 | relative viability (HOP-62; first compound 0.03162 µM): 0.89 | relative viability (HOP-62; first compound 0.1 µM): 0.743 | relative viability (HOP-62; first compound 0.3162 µM): 0.71 | relative viability (HOP-62; first compound 1 µM): 0.552 | relative viability (NCI-H1755; first compound 0.01 µM): 0.826 | relative viability (NCI-H1755; first compound 0.03162 µM): 0.845 | relative viability (NCI-H1755; first compound 0.1 µM): 0.722 | relative viability (NCI-H1755; first compound 0.3162 µM): 0.712 | relative viability (NCI-H1755; first compound 1 µM): 0.44 | relative viability (NCI-H1975; first compound 0.01 µM): 0.687 | relative viability (NCI-H1975; first compound 0.03162 µM): 0.73 | relative viability (NCI-H1975; first compound 0.1 µM): 0.637 | relative viability (NCI-H1975; first compound 0.3162 µM): 0.615 | relative viability (NCI-H1975; first compound 1 µM): 0.397 | relative viability (EMC-BAC-2; first compound 0.01 µM): 0.349 | relative viability (EMC-BAC-2; first compound 0.03162 µM): 0.435 | relative viability (EMC-BAC-2; first compound 0.1 µM): 0.465 | relative viability (EMC-BAC-2; first compound 0.3162 µM): 0.345 | relative viability (EMC-BAC-2; first compound 1 µM): 0.405 | relative viability (NCI-H2009; first compound 0.01 µM): 0.664 | relative viability (NCI-H2009; first compound 0.03162 µM): 0.736 | relative viability (NCI-H2009; first compound 0.1 µM): 0.73 | relative viability (NCI-H2009; first compound 0.3162 µM): 0.601 | relative viability (NCI-H2009; first compound 1 µM): 0.459 | relative viability (NCI-H2228; first compound 0.01 µM): 0.513 | relative viability (NCI-H2228; first compound 0.03162 µM): 0.847 | relative viability (NCI-H2228; first compound 0.1 µM): 0.492 | relative viability (NCI-H2228; first compound 0.3162 µM): 0.302 | relative viability (NCI-H2228; first compound 1 µM): 0.152 | relative viability (NCI-H460; first compound 0.01 µM): 0.861 | relative viability (NCI-H460; first compound 0.03162 µM): 0.751 | relative viability (NCI-H460; first compound 0.1 µM): 0.649 | relative viability (NCI-H460; first compound 0.3162 µM): 0.463 | relative viability (NCI-H460; first compound 1 µM): 0.0347 | relative viability (CAL-12T; first compound 0.01 µM): 0.676 | relative viability (CAL-12T; first compound 0.03162 µM): 0.73 | relative viability (CAL-12T; first compound 0.1 µM): 0.768 | relative viability (CAL-12T; first compound 0.3162 µM): 0.487 | relative viability (CAL-12T; first compound 1 µM): 0.124 | relative viability (HARA; first compound 0.01 µM): 0.506 | relative viability (HARA; first compound 0.03162 µM): 0.609 | relative viability (HARA; first compound 0.1 µM): 0.564 | relative viability (HARA; first compound 0.3162 µM): 0.59 | relative viability (HARA; first compound 1 µM): 0.16 | relative viability (LCLC-103H; first compound 0.01 µM): 0.451 | relative viability (LCLC-103H; first compound 0.03162 µM): 0.471 | relative viability (LCLC-103H; first compound 0.1 µM): 0.427 | relative viability (LCLC-103H; first compound 0.3162 µM): 0.392 | relative viability (LCLC-103H; first compound 1 µM): 0.341 | relative viability (HCC-827; first compound 0.01 µM): 0.787 | relative viability (HCC-827; first compound 0.03162 µM): 0.802 | relative viability (HCC-827; first compound 0.1 µM): 0.863 | relative viability (HCC-827; first compound 0.3162 µM): 0.875 | relative viability (HCC-827; first compound 1 µM): 0.537

— the supplement of paper PMC10307832
